According to ChEMBL document CHEMBL1201862, “PubChem BioAssay data set” (2004):
The source made the active and inactive calls.

What was measured:
[1] = LGR2 antagonists, dose response, cell-based, HEK293, CRE-luciferase reporter, cherry pick, set 2 (AID 743343); format: functional;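 further: transfected cells were stimulated with diluted bursicon conditioned medium after compound addition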
[2] = molecular target: Photoreceptor-specific nuclear receptor (Homo sapiens, UniProt Q9Y5X4); format: functional, cell-based;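 further: CHO-S cells with Gal4-NCOR and VP16-NR2E3 two-hybrid luciferase reporter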
[3] = molecular target: T1, Microphthalmia-associated transcription factor (Homo sapiens, UniProt O75030); assay: TRPM1 promoter luciferase signal decrease, dose response, MITF inhibitor project, cell-based, SK-MEL-5, cherry-picked, set 3 (AID 493073); format: functional
T1 sequence (O75030 whole entry): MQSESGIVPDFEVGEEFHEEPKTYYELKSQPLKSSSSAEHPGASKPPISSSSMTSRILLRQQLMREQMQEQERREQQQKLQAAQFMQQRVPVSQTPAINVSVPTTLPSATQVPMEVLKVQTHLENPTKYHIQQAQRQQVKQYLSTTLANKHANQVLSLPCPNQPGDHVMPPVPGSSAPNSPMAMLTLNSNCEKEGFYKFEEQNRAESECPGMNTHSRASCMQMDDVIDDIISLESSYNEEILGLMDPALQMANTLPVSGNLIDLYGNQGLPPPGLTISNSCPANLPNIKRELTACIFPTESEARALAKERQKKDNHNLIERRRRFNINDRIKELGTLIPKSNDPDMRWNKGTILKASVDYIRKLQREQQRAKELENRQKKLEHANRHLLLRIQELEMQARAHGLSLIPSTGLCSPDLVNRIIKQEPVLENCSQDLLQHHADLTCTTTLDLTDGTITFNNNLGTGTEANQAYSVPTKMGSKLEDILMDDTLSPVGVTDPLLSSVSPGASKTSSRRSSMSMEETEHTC

[4] = HEK293 cell cytotoxicity, dose response, cytotoxicity control, plate reader, cherry-picked samples (AID 743446); format: functional, cell-based
[5] = MC4R antagonists, dose response, counter-screen for LGR2 antagonist project, cell-based, plate reader, cherry pick (AID 743444); format: functional;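 further: transfected HEK 293 cells stimulated with alpha-MSH peptide; potency of inhibitors of the alpha-MSH evoked signal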
[6] = system: HEK293; assay: cells; format: functional, cell-based; conditions: Homo sapiens
[7] = system: HEK293; assay: cells; format: functional, cell-based; conditions: Homo sapiens; remark: listed apart in the source
[8] = A549 cell cytotoxicity, dose response, cytotoxicity control, plate reader, cherry-pick, antagonist series (AID 743412); format: functional, cell-based
[9] = system: HEK293; assay: NOD1 signaling inhibitors, primary screen, cell-based, luminescence, uHTS (AID 1578); format: functional; conditions: Homo sapiens
[10] = system: HEK293; assay: NOD2 signaling inhibitors in MDP-stimulated cells, cell-based, uHTS, luminescence (AID 2001); format: functional; conditions: Homo sapiens
[11] = system: HEK293; assay: cells; format: functional, cell-based; conditions: Homo sapiens; remark: listed apart in the source
[12] = molecular target: T2, Heat shock factor protein 1 (Mus musculus, UniProt P38532); assay: inhibition of MG132-induced HSE-luciferase signal, confirmation, cell-based, NIH3T3, luminescence, dose retest (AID 2382); format: functional;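 further: NIH3T3 fibroblasts with HSF1-driven luciferase reporter stressed by proteasome inhibitor MG132; luminescence from HSF1-driven luciferase expression after 8 hours of MG132 stress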
T2 sequence (P38532 whole entry): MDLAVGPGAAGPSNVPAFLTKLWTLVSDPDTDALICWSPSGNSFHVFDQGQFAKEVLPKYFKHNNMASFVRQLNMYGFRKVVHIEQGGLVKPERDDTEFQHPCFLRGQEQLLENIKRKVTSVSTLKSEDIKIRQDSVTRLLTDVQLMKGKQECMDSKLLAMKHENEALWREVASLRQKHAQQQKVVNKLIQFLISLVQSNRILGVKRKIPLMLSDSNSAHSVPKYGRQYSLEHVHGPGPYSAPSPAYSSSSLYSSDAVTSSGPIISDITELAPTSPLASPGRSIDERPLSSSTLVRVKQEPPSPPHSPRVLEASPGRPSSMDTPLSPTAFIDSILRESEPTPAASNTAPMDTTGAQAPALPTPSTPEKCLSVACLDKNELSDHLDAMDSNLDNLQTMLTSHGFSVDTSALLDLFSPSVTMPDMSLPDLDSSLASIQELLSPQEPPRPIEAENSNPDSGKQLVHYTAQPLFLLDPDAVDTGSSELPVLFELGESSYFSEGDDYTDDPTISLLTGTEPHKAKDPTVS

[13] = molecular target: Nucleotide-binding oligomerization domain-containing protein 2 (Homo sapiens, UniProt Q9HC29); assay: NOD2 signaling inhibitors, cell-based, luminescence, uHTS, HEK293 (AID 1566); format: functional
[14] = HepG2 cell cytotoxicity, dose response, cytotoxicity control, plate reader, cherry-pick, antagonist series (AID 743416); format: functional, cell-based
[15] = inhibitors of HIV Env-driven cell fusion, dose response, cherry-pick (AID 652057); format: functional, cell-based
[16] = cytotoxicity in HEK-293T cells, dose response, cytotoxicity control for TCR NF-kB inhibitor project, luminescence, T-cell screen hits (AID 489026); format: functional, cell-based;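 further: cells exposed to compound about 14 hours before the viability readout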
[17] = inhibitors of clade B AD8 Env fusion, dose response, cell-based, cherry-pick (AID 652062); format: functional;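 further: luciferase signal from cell-cell fusion driven by HIV-1 clade B AD8 Env; potency is for inhibitors of fusion seen as a drop in luminescence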
[18] = ZM109 Env clade C HIV-1 fusion inhibitors, dose response, HeLa effector, CEM target cells, luciferase, cherry-pick (AID 652058); format: functional, cell-based
[19] = molecular target: T3, Dual specificity protein phosphatase 6 (Rattus norvegicus, UniProt Q64346); format: functional
T3 sequence (Q64346 whole entry): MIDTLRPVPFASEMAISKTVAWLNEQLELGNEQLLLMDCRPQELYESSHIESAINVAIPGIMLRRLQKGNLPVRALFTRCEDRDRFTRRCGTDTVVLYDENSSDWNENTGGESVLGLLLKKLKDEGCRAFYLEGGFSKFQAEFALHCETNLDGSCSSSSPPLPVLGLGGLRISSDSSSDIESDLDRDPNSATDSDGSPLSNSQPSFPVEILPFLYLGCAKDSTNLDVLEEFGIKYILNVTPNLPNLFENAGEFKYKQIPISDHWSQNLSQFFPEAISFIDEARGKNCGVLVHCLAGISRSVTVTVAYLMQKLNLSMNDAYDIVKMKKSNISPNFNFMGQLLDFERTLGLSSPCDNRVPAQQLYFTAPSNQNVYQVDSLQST

[20] = molecular target: T3, Dual specificity protein phosphatase 6
[21] = molecular target: T4, Tyrosine-protein phosphatase non-receptor type 7 (Homo sapiens, UniProt P35236); format: functional
T4 sequence (P35236 whole entry): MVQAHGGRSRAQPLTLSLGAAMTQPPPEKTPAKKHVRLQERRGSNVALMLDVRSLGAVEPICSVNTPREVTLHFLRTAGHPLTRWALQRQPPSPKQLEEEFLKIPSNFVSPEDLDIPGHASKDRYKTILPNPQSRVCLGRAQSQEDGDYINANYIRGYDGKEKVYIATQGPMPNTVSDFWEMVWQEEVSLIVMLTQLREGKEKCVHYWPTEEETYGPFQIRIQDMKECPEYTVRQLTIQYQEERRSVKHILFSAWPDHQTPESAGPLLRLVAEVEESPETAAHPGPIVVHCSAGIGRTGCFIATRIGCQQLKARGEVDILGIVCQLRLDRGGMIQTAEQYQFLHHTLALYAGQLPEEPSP

[22] = molecular target: Glyceraldehyde-3-phosphate dehydrogenase (Homo sapiens, UniProt P04406)
Glyceraldehyde-3-phosphate dehydrogenase, sequence (P04406 whole entry): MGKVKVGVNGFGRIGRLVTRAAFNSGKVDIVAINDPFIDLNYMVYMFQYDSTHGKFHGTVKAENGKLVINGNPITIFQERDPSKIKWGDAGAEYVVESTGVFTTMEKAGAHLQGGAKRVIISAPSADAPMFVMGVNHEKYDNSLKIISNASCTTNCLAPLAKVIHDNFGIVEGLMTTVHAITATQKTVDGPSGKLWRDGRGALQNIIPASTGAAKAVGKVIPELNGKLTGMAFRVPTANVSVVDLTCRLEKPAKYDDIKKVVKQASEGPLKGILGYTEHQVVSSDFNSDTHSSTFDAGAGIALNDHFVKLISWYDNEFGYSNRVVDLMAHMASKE

Nucleotide-binding oligomerization domain-containing protein 2, sequence (Q9HC29 whole entry, the tested form may be a part): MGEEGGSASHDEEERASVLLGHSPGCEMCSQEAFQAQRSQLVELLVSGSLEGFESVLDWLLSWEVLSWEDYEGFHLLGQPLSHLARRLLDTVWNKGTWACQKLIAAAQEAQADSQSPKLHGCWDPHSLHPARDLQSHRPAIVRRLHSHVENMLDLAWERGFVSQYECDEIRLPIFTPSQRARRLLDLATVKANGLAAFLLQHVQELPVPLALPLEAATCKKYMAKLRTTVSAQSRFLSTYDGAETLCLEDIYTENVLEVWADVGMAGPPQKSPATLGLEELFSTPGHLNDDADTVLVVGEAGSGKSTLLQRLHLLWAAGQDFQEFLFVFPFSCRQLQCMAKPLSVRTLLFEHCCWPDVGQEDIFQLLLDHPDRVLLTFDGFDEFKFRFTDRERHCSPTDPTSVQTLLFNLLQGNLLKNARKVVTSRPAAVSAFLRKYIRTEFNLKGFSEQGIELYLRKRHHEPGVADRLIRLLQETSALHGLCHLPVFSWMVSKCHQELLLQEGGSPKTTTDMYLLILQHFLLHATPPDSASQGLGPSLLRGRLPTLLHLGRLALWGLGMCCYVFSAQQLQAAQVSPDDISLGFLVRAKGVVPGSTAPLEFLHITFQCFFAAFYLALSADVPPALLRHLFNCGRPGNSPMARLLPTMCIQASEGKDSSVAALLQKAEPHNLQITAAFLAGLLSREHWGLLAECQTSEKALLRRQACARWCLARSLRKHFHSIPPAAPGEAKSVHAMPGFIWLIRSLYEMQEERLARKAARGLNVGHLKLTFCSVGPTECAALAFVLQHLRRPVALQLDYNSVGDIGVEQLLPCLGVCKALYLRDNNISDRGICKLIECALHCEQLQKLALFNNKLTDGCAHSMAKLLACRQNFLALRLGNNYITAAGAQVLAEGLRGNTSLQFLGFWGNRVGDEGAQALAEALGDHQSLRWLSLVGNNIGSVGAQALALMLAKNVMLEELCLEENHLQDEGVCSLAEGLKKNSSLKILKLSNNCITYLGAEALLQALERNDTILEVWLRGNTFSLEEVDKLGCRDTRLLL
Photoreceptor-specific nuclear receptor, sequence (Q9Y5X4 whole entry, the tested form may be a part): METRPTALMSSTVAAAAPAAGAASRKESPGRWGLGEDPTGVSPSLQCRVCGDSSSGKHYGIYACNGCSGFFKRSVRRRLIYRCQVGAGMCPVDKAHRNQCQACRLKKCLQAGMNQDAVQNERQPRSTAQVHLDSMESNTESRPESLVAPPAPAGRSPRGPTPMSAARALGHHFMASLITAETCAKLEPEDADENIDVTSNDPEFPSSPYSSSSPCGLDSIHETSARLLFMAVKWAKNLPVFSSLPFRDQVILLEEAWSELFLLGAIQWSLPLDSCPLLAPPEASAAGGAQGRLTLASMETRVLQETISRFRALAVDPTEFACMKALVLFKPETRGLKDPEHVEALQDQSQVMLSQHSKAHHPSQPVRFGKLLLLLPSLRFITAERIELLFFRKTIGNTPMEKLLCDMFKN

## Cc1cc(C)c(C#N)c(SCc2nnc(-c3ccccc3)o2)n1
[1]
  AC50: 0.281 µM (active)
[2]
  IC50: 35.7 µM (inactive)
[3]
  AC50: 0.024 µM (active)
[4]
  AC50: > 52 µM (inactive)
[5]
  AC50: 0.321 µM (active)
[6]
  IC50: > 20 µM (inactive)
[7]
  IC50: 6.41 µM (active)
[8]
  AC50: > 52 µM (inactive)
[9]
  EC50: 10.5 µM (active)
[10]
  IC50: 12.6 µM (inactive)
[11]
  IC50: > 20 µM (inactive)
[12]
  EC50: < 0.16 µM (active)
[13]
  EC50: < 0.31 µM (inactive)
[14]
  AC50: > 52 µM (inactive)

## Clc1ccc2c(c1)C(C1=NCCN1)c1ccccc1CS2 (stereo unspecified)
[15]
  AC50: 1.48 µM (active)
[16]
  IC50: > 80 µM (inactive)
[17]
  AC50: 4.39 µM (active)
[18]
  AC50: 2.07 µM (active)

## CCn1c(=O)n(C)c(=O)n([C@@H](Cc2ccccc2)C(N)=O)c1=O
[19]
  IC50: > 100 µM (inactive)
[20]
  IC50: > 100 µM (inactive)
[21]
  IC50: > 100 µM (not active)
[22]
  IC50: > 100 µM (not active)

## CCCn1c(=O)nc(NCc2ccccc2OC)[nH]c1=O
[19]
  IC50: > 100 µM (inactive)
[20]
  IC50: > 100 µM (inactive)
[21]
  IC50: > 100 µM (not active)
[22]
  IC50: > 100 µM (not active)
